Molecular target: T1, human recombinant mGluR5 receptor (Homo sapiens, UniProt P41594)
T1 construct: expressed in transfected cells; expression induced with doxycycline
Assay: mGluR5 in vitro functional assay (aequorin cell line, inhibition of glutamate EC80 response)
Format: cell-based
Settings: Table 1; aequorin cell line expressing human mGluR5, reference agonist glutamate at EC80; obtained in duplicate; read-out: IC50
Method: B. mGluR5 In Vitro Functional Assay
The functional assay utilized an aequorin cell line expressing human recombinant mGluR5 receptor, an inducible cell line that expresses the human receptor under the control of a promoter induced by doxycycline.
mGluR5 cells in mid-log phase, grown 18 hours prior to the test in antibiotic-free media supplemented with doxycycline (600 ng/mL), were detached by gentle flushing with PBS-EDTA ([…]). The cells were recovered by centrifugation and resuspended in assay buffer (HBSS, […], 3 ug/mL glutamate-pyruvate transaminase, […] MEM sodium pyruvate, 0.1% BSA protease-free). Cells were incubated at room temperature for at least 4 hours with Coelenterazine h (Molecular Probes). The cell suspension (60 uL) containing the test compound was mixed with a solution of reference agonist (30 uL) at its EC80, following an incubation of 3 min. after the first injection. The resulting emission of light was recorded using a Hamamatsu Functional Drug Screening System 6000 (FDSS 6000). To standardize the emission of recorded light (determination of the “100% signal’) across plates and across different experiments, some of the wells contained 100 uM digitonin or a saturating concentration (20 mM) of ATP. Plates also contained the reference agonist (glutamate) at a concentration equivalent to the EC80 obtained during assay validation. Percentages of inhibition were calculated on the basis of the activation induced by the reference agonist at a concentration equal to the EC80. Dose-response data were analyzed with XLFit (IDBS) software using nonlinear regression applied to a sigmoidal dose-response model.

T1 sequence (P41594 21-1212): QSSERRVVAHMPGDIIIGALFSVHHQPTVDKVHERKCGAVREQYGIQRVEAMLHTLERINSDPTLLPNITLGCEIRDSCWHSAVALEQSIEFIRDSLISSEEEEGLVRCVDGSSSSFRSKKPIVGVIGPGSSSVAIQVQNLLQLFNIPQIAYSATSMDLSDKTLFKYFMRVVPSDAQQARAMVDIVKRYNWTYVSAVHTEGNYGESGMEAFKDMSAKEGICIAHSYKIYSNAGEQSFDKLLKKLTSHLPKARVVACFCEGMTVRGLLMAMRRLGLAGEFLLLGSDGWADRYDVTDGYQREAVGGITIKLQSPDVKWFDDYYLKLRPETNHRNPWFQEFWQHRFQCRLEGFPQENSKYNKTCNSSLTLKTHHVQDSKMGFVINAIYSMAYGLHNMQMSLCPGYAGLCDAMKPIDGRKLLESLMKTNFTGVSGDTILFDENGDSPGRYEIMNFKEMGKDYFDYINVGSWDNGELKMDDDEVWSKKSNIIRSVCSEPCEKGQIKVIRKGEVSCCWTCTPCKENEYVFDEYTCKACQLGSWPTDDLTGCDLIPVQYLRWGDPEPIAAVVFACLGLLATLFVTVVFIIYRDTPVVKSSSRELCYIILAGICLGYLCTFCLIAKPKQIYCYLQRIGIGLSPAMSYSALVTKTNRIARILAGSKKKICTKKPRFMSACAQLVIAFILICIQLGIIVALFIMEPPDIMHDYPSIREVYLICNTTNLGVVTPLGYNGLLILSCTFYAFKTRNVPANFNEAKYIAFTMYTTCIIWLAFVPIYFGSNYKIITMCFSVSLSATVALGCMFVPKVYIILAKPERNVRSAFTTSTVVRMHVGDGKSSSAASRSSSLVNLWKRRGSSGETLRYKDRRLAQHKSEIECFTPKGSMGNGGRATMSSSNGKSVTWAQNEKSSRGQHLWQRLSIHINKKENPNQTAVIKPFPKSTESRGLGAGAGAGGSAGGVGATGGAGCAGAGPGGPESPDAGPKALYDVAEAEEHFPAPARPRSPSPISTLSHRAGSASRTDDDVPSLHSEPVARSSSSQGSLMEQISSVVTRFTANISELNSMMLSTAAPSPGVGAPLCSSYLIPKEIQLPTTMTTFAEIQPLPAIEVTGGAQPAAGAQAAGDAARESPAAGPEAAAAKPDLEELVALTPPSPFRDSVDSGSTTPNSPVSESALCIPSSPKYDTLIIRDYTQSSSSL

`CC1CN(c2cc(F)cc(C#N)c2)Cc2oc(-c3ccccn3)nc21` (racemic) [Compound 81, (+/−)-3-Fluoro-5-(7-methyl-2-(pyridin-2-yl)-6,7-dihydrooxazolo[5,4-c]pyridin-5(4H)-yl)benzonitrile] and `CC1CN(c2cc(F)cc(C#N)c2)Cc2nc(-c3ccccn3)oc21` (racemic) [Compound 82, (+/−)-3-Fluoro-5-(7-methyl-2-(pyridin-2-yl)-6,7-dihydrooxazolo[4,5-c]pyridin-5(4H)-yl)benzonitrile] cannot be ordered by IC50: under 1 µM for the first, under 1 µM for the second.

`N#Cc1cccc(N2CCc3nc(-c4ccccn4)oc3C2)c1` [Compound 1, 3-(2-(Pyridin-2-yl)-6,7-dihydrooxazolo[5,4-c]pyridin-5(4H)-yl)benzonitrile] and `N#Cc1cccc(N2CCc3oc(-c4ccccn4)nc3C2)c1` [Compound 23, 3-(2-(Pyridin-2-yl)-6,7-dihydrooxazolo[4,5-c]pyridin-5(4H)-yl)benzonitrile] cannot be ordered by IC50: under 1 µM for the first, under 1 µM for the second.

`c1ccc(-c2nc3c(o2)CN(c2ccccn2)CC3)nc1` [Compound 2, 2,5-Di(pyridin-2-yl)-4,5,6,7-tetrahydro-oxazolo[5,4-c]pyridine] and `c1ccc(-c2nc3c(o2)CCN(c2ccccn2)C3)nc1` [Compound 27, 2,5-Di(pyridin-2-yl)-4,5,6,7-tetrahydrooxazolo[4,5-c]pyridine] cannot be ordered by IC50: under 10 µM for the first, under 1 µM for the second.

`N#Cc1cccnc1N1CCc2nc(-c3ccccn3)oc2C1` [Compound 3, 2-(2-(Pyridin-2-yl)-6,7-dihydrooxazolo[5,4-c]pyridin-5(4H)-yl)nicotinonitrile] and `N#Cc1cccnc1N1CCc2oc(-c3ccccn3)nc2C1` [Compound 28, 2-(2-(Pyridin-2-yl)-6,7-dihydrooxazolo[4,5-c]pyridin-5(4H)-yl)nicotinonitrile] cannot be ordered by IC50: under 1 µM for the first, under 1 µM for the second.

`N#Cc1cc(F)cc(N2CCc3nc(-c4ccccn4)oc3C2)c1` [Compound 4, 3-Fluoro-5-(2-(pyridin-2-yl)-6,7-dihydrooxazolo[5,4-c]pyridin-5(4H)-yl)benzonitrile] and `N#Cc1cc(F)cc(N2CCc3oc(-c4ccccn4)nc3C2)c1` [Compound 30, 3-Fluoro-5-(2-(pyridin-2-yl)-6,7-dihydrooxazolo[4,5-c]pyridin-5(4H)-yl)benzonitrile] cannot be ordered by IC50: under 1 µM for the first, under 1 µM for the second.

Compared with `c1ccc(-c2nc3c(o2)CN(c2cccnc2)CC3)nc1` [Compound 5, 2-(Pyridin-2-yl)-5-(pyridin-3-yl)-4,5,6,7-tetrahydrooxazolo[5,4-c]pyridine], `N#Cc1cncc(N2CCc3nc(-c4ccccn4)oc3C2)c1` [Compound 8, 5-(2-(Pyridin-2-yl)-6,7-dihydrooxazolo[5,4-c]pyridin-5(4H)-yl)nicotinonitrile] is lower in IC50: over 10 µM for the first, under 10 µM for the second.

`N#Cc1cccc(N2CCc3nc(-c4ccccn4)oc3C2)n1` [Compound 6, 6-(2-(Pyridin-2-yl)-6,7-dihydrooxazolo[5,4-c]pyridin-5(4H)-yl)picolinonitrile] and `N#Cc1cccc(N2CCc3oc(-c4ccccn4)nc3C2)n1` [Compound 29, 6-(2-(Pyridin-2-yl)-6,7-dihydrooxazolo[4,5-c]pyridin-5(4H)-yl)picolinonitrile] cannot be ordered by IC50: under 10 µM for the first, under 1 µM for the second.

`N#Cc1ccnc(N2CCc3nc(-c4ccccn4)oc3C2)c1` [Compound 7, 2-(2-(Pyridin-2-yl)-6,7-dihydrooxazolo[5,4-c]pyridin-5(4H)-yl)isonicotinonitrile] and `N#Cc1ccnc(N2CCc3oc(-c4ccccn4)nc3C2)c1` [Compound 24, 2-(2-(Pyridin-2-yl)-6,7-dihydrooxazolo[4,5-c]pyridin-5(4H)-yl)isonicotinonitrile] cannot be ordered by IC50: under 10 µM for the first, under 1 µM for the second.

`N#Cc1cc(N2CCc3nc(-c4ccccn4)oc3C2)ccn1` [Compound 9, 4-(2-(Pyridin-2-yl)-6,7-dihydrooxazolo[5,4-c]pyridin-5(4H)-yl)picolinonitrile] and `N#Cc1cc(N2CCc3oc(-c4ccccn4)nc3C2)ccn1` [Compound 26, 4-(2-(Pyridin-2-yl)-6,7-dihydrooxazolo[4,5-c]pyridin-5(4H)-yl)picolinonitrile] cannot be ordered by IC50: under 10 µM for the first, under 1 µM for the second.

`N#Cc1cc(Br)cc(N2CCc3nc(-c4ccccn4)oc3C2)c1` [Compound 10, 3-Bromo-5-(2-(pyridin-2-yl)-6,7-dihydrooxazolo[5,4-c]pyridin-5(4H)-yl)benzonitrile] and `N#Cc1cc(C#N)cc(N2CCc3nc(-c4ccccn4)oc3C2)c1` [Compound 16, 5-(2-(Pyridin-2-yl)-6,7-dihydrooxazolo[5,4-c]pyridin-5(4H)-yl)isophthalonitrile] cannot be ordered by IC50: under 1 µM for the first, under 10 µM for the second.

Compared with `N#Cc1cc(N2CCOCC2)cc(N2CCc3nc(-c4ccccn4)oc3C2)c1` [Compound 11, 3-Morpholino-5-(2-(pyridin-2-yl)-6,7-dihydrooxazolo[5,4-c]pyridin-5(4H)-yl)benzonitrile], `N#Cc1cc(N2CCc3oc(-c4ccccn4)nc3C2)cc(C(F)(F)F)c1` [Compound 32, 3-(2-(Pyridin-2-yl)-6,7-dihydrooxazolo[4,5-c]pyridin-5(4H)-yl)-5-(trifluoromethyl)benzonitrile] is lower in IC50: over 10 µM for the first, under 1 µM for the second.

`N#Cc1cccc(C(=O)N2CCc3nc(-c4ccccn4)oc3C2)c1` [Compound 12, 3-(2-(Pyridin-2-yl)-4,5,6,7-tetrahydrooxazolo[5,4-c]pyridine-5-carbonyl)benzonitrile] and `N#Cc1cccc(CN2CCc3nc(-c4ccccn4)oc3C2)c1` [Compound 13] cannot be ordered by IC50: under 10 µM for the first, under 10 µM for the second.

`Fc1cc(-c2ccncc2)cc(N2CCc3nc(-c4ccccn4)oc3C2)c1` [Compound 14, 5-(3-Fluoro-5-(pyridin-4-yl)phenyl)-2-(pyridin-2-yl)-4,5,6,7-tetrahydrooxazolo[5,4-c]pyridine] and `Fc1cc(F)cc(N2CCc3nc(-c4ccccn4)oc3C2)c1` [Compound 17, 5-(3,5-Difluorophenyl)-2-(pyridin-2-yl)-4,5,6,7-tetrahydrooxazolo[5,4-c]pyridine] cannot be ordered by IC50: under 10 µM for the first, under 1 µM for the second.

`N#Cc1cccc(N2CCc3nc(-c4cccc[n+]4[O-])oc3C2)c1` [Compound 15, 2-(5-(3-Cyanophenyl)-4,5,6,7-tetrahydrooxazolo[5,4-c]pyridin-2-yl)pyridine 1-oxide] and `N#Cc1cc(F)cc(N2CCc3nc(-c4ccccc4)oc3C2)c1` [Compound 21, 3-Fluoro-5-(2-phenyl-6,7-dihydrooxazolo[5,4-c]pyridin-5(4H)-yl)benzonitrile] cannot be ordered by IC50: under 1 µM for the first, under 1 µM for the second.

First: c1ccc(-c2nc3c(o2)CN(c2cnccn2)CC3)cc1 [Compound 18, 2-Phenyl-5-(pyrazin-2-yl)-4,5,6,7-tetrahydrooxazolo-[5,4-c]pyridine]
Second: c1ccc(-c2nc3c(o2)CN(c2ccccn2)CC3)cc1 [Compound 20, 2-Phenyl-5-(pyridin-2-yl)-4,5,6,7-tetrahydrooxazolo-[5,4-c]pyridine]
The IC50 of the first is lower: under 10 µM for the first, over 10 µM for the second. The first is the more potent here.

`N#Cc1cccnc1N1CCc2nc(-c3ccccc3)oc2C1` [Compound 19, 2-(2-Phenyl-6,7-dihydrooxazolo[5,4-c]pyridin-5(4H)-yl)nicotinonitrile] and `N#Cc1cccc(CN2CCc3oc(-c4ccccn4)nc3C2)c1` [Compound 34] cannot be ordered by IC50: under 10 µM for the first, under 1 µM for the second.

`c1ccc(-c2nc3c(o2)CN(c2nccs2)CC3)nc1` [Compound 22, 2-(Pyridin-2-yl)-5-(thiazol-2-yl)-4,5,6,7-tetrahydrooxazolo[5,4-c]pyridine] and `N#Cc1cncc(N2CCc3oc(-c4ccccn4)nc3C2)c1` [Compound 25, 5-(2-(Pyridin-2-yl)-6,7-dihydrooxazolo[4,5-c]pyridin-5(4H)-yl)nicotinonitrile] cannot be ordered by IC50: under 10 µM for the first, under 1 µM for the second.

`Fc1cc(F)cc(N2CCc3oc(-c4ccccn4)nc3C2)c1` [Compound 31, 5-(3,5-Difluorophenyl)-2-(pyridin-2-yl)-4,5,6,7-tetrahydrooxazolo[4,5-c]pyridine] and `N#Cc1cc(F)cc(N2CCc3oc(-c4ccc(F)cn4)nc3C2)c1` [Compound 33, 3-Fluoro-5-(2-(5-fluoropyridin-2-yl)-6,7-dihydrooxazolo[4,5-c]pyridin-5(4H)-yl)benzonitrile] cannot be ordered by IC50: under 1 µM for the first, under 1 µM for the second.

Same assay, conditions: Table 2; aequorin cell line expressing human mGluR5, reference agonist glutamate at EC80; obtained in duplicate; read-out: IC50

`Clc1ccccc1C1CCc2oc(-c3ccccn3)nc2C1` (racemic) [Compound 219, 5-(2-Chlorophenyl)-2-(pyridin-2-yl)-4,5,6,7-tetrahydrobenzo[d]oxazole] and `Clc1ccccc1[C@@H]1CCc2oc(-c3ccccn3)nc2C1` (single isomer, unassigned) [Compound 220] cannot be ordered by IC50: under 1 µM for the first, under 1 µM for the second.

`Fc1ccc(C2CCc3oc(-c4ccccn4)nc3C2)c(Cl)c1` (racemic) [Compound 223, 5-(2-Chloro-4-fluorophenyl)-2-(pyridin-2-yl)-4,5,6,7-tetrahydrobenzo[d]oxazole] and `Fc1ccc([C@@H]2CCc3oc(-c4ccccn4)nc3C2)c(Cl)c1` (single isomer, unassigned) [Compound 224] cannot be ordered by IC50: under 1 µM for the first, under 1 µM for the second.

`Clc1ccccc1[C@H]1CCc2oc(-c3ccccn3)nc2C1` (single isomer, unassigned) [Compound 221] and `Fc1ccc([C@H]2CCc3oc(-c4ccccn4)nc3C2)c(Cl)c1` (single isomer, unassigned) [Compound 225] cannot be ordered by IC50: under 1 µM for the first, under 1 µM for the second.

— patent US20120029190A1, “COMPOUNDS FOR TREATING DISORDERS MEDIATED BY METABOTROPIC GLUTAMATE RECEPTOR 5, AND METHODS OF USE THEREOF” (priority 2009, published 2012)
